From the OligoGym collection
Values joined by “and” are separate entries in the source; they are usually repeats but may differ in a detail not shown here. Identical values can stand only once. HELM strings list units from the 5' end as sugar, base in round brackets, then linkage (d deoxyribose, r ribose, m 2'-O-methyl, p phosphodiester). Strings are as the collection lists them, not checked against the first reports. ss, as = sense and antisense strand; [fl2r] = 2'-fluoro

Conditions: siRNA
Also: test system not given here.

Substance	target mRNA knockdown
RNA1{r(A)p.r(A)p.r(G)p.m(G)p.m(A)p.r(G)p.r(A)p.r(U)p.m(C)p.m(A)p.m(A)p.r(C)p.r(A)p.r(U)p.m(U)p.m(U)p.r(U)p.r(C)p.r(A)p.r(T)p.r(T)}|RNA2{m(U)p.m(G)p.m(A)p.r(A)p.r(A)p.m(A)p.m(U)p.m(G)p.r(U)p.r(U)p.r(G)p.m(A)p.m(U)p.m(C)p.r(U)p.r(C)p.m(C)p.m(U)p.m(U)p.r(T)p.r(T)}$$$RNA1{StrandType:ss}|RNA2{StrandType:as}$	38%
RNA1{r(A)p.r(A)p.r(G)p.r(G)p.m(C)p.r(A)p.m(U)p.m(G)p.r(C)p.r(U)p.r(U)p.r(C)p.r(G)p.r(G)p.r(A)p.r(A)p.r(A)p.r(C)p.r(U)p.r(T)p.r(T)}|RNA2{r(A)p.r(G)p.r(U)p.r(U)p.r(U)p.r(C)p.r(C)p.r(G)p.r(A)p.r(A)p.r(G)p.m(C)p.r(A)p.m(U)p.r(G)p.r(C)p.r(C)p.r(U)p.r(U)p.r(T)p.r(T)}$$$RNA1{StrandType:ss}|RNA2{StrandType:as}$	87%
RNA1{r(A)p.r(A)p.r(G)p.r(G)p.m(C)p.r(A)p.r(U)p.r(G)p.r(C)p.r(U)p.r(U)p.r(C)p.r(G)p.r(G)p.r(A)p.r(A)p.r(A)p.r(C)p.r(U)p.r(T)p.r(T)}|RNA2{r(A)p.r(G)p.r(U)p.r(U)p.r(U)p.r(C)p.r(C)p.r(G)p.r(A)p.r(A)p.r(G)p.m(C)p.r(A)p.r(U)p.r(G)p.r(C)p.r(C)p.r(U)p.r(U)p.r(T)p.r(T)}$$$RNA1{StrandType:ss}|RNA2{StrandType:as}$	95%
RNA1{r(A)p.r(A)p.r(G)p.r(G)p.r(A)p.r(A)p.r(C)p.r(G)p.r(G)p.r(G)p.r(G)p.r(A)p.m(C)p.r(A)p.r(C)p.r(U)p.m(U)p.r(A)p.r(C)p.r(T)p.r(T)}|RNA2{r(G)p.m(U)p.r(A)p.r(A)p.r(G)p.m(U)p.r(G)p.r(U)p.r(C)p.r(C)p.r(C)p.r(C)p.r(G)p.r(U)p.r(U)p.r(C)p.r(C)p.r(U)p.r(U)p.r(T)p.r(T)}$$$RNA1{StrandType:ss}|RNA2{StrandType:as}$	35%
RNA1{r(A)p.r(A)p.r(G)p.r(G)p.r(A)p.r(A)p.r(C)p.r(G)p.r(G)p.r(G)p.r(G)p.r(A)p.r(C)p.r(A)p.r(C)p.r(U)p.r(U)p.r(A)p.r(C)p.r(T)p.r(T)}|RNA2{r(G)p.m(U)p.r(A)p.r(A)p.r(G)p.r(U)p.r(G)p.r(U)p.r(C)p.r(C)p.r(C)p.r(C)p.r(G)p.r(U)p.r(U)p.r(C)p.r(C)p.r(U)p.r(U)p.r(T)p.r(T)}$$$RNA1{StrandType:ss}|RNA2{StrandType:as}$	38%
RNA1{r(A)p.r(A)p.r(G)p.r(G)p.r(A)p.r(C)p.r(C)p.[fl2r](U)p.r(A)p.r(G)p.r(A)p.r(G)p.r(G)p.r(A)p.r(G)p.r(U)p.[fl2r](C)p.r(A)p.r(C)p.r(T)p.r(T)}|RNA2{r(G)p.[fl2r](U)p.r(G)p.r(A)p.r(C)p.r(U)p.r(C)p.r(C)p.r(U)p.r(C)p.[fl2r](U)p.r(A)p.r(G)p.r(G)p.r(U)p.r(C)p.r(C)p.r(U)p.r(U)p.r(T)p.r(T)}$$$RNA1{StrandType:ss}|RNA2{StrandType:as}$	87%
RNA1{r(A)p.r(A)p.r(G)p.r(G)p.r(A)p.r(C)p.r(C)p.[fl2r](U)p.r(A)p.r(G)p.r(A)p.r(G)p.r(G)p.r(A)p.r(G)p.r(U)p.r(C)p.r(A)p.r(C)p.r(T)p.r(T)}|RNA2{r(G)p.r(U)p.r(G)p.r(A)p.r(C)p.r(U)p.r(C)p.r(C)p.r(U)p.r(C)p.[fl2r](U)p.r(A)p.r(G)p.r(G)p.r(U)p.r(C)p.r(C)p.r(U)p.r(U)p.r(T)p.r(T)}$$$RNA1{StrandType:ss}|RNA2{StrandType:as}$	88%
RNA1{r(A)p.r(A)p.r(G)p.r(G)p.r(A)p.r(C)p.r(C)p.m(U)p.r(A)p.r(G)p.r(A)p.r(G)p.r(G)p.r(A)p.r(G)p.r(U)p.m(C)p.m(A)p.r(C)p.r(T)p.r(T)}|RNA2{r(G)p.m(U)p.r(G)p.r(A)p.r(C)p.r(U)p.r(C)p.r(C)p.r(U)p.r(C)p.m(U)p.r(A)p.r(G)p.r(G)p.r(U)p.r(C)p.r(C)p.r(U)p.r(U)p.r(T)p.r(T)}$$$RNA1{StrandType:ss}|RNA2{StrandType:as}$	78%
RNA1{r(A)p.r(A)p.r(G)p.r(G)p.r(A)p.r(C)p.r(C)p.m(U)p.r(A)p.r(G)p.r(A)p.r(G)p.r(G)p.r(A)p.r(G)p.r(U)p.r(C)p.r(A)p.r(C)p.r(T)p.r(T)}|RNA2{r(G)p.m(U)p.r(G)p.r(A)p.r(C)p.r(U)p.r(C)p.r(C)p.r(U)p.r(C)p.r(U)p.r(A)p.r(G)p.r(G)p.r(U)p.r(C)p.r(C)p.r(U)p.r(U)p.r(T)p.r(T)}$$$RNA1{StrandType:ss}|RNA2{StrandType:as}$	80%
RNA1{r(A)p.r(A)p.r(G)p.r(G)p.r(A)p.r(G)p.r(A)p.m(U)p.m(C)p.r(A)p.r(A)p.m(C)p.r(A)p.m(U)p.m(U)p.m(U)p.m(U)p.m(C)p.r(A)p.r(T)p.r(T)}|RNA2{m(U)p.r(G)p.r(A)p.r(A)p.r(A)p.r(A)p.m(U)p.r(G)p.m(U)p.m(U)p.r(G)p.r(A)p.m(U)p.m(C)p.m(U)p.m(C)p.m(C)p.m(U)p.m(U)p.r(T)p.r(T)}$$$RNA1{StrandType:ss}|RNA2{StrandType:as}$	37%
RNA1{r(A)p.r(A)p.r(G)p.r(G)p.r(A)p.r(G)p.r(A)p.m(U)p.m(C)p.r(A)p.r(A)p.m(C)p.r(A)p.m(U)p.m(U)p.m(U)p.m(U)p.m(C)p.r(A)p.r(T)p.r(T)}|RNA2{m(U)p.r(G)p.r(A)p.r(A)p.r(A)p.r(A)p.m(U)p.r(G)p.r(U)p.r(U)p.r(G)p.r(A)p.m(U)p.m(C)p.m(U)p.m(C)p.m(C)p.m(U)p.m(U)p.r(T)p.r(T)}$$$RNA1{StrandType:ss}|RNA2{StrandType:as}$	53% and 74%
RNA1{r(A)p.r(A)p.r(G)p.r(G)p.r(A)p.r(G)p.r(A)p.r(U)p.r(C)p.r(A)p.r(A)p.r(C)p.r(A)p.r(U)p.r(U)p.r(U)p.m(U)p.m(C)p.m(A)p.r(T)p.r(T)}|RNA2{r(U)p.r(G)p.r(A)p.r(A)p.r(A)p.r(A)p.r(U)p.r(G)p.r(U)p.r(U)p.r(G)p.r(A)p.r(U)p.r(C)p.r(U)p.r(C)p.m(C)p.m(U)p.m(U)p.r(T)p.r(T)}$$$RNA1{StrandType:ss}|RNA2{StrandType:as}$	73%
RNA1{r(A)p.r(A)p.r(G)p.r(G)p.r(C)p.r(C)p.r(A)p.r(A)p.r(C)p.r(C)p.r(G)p.r(A)p.[fl2r](U)p.r(A)p.r(C)p.r(U)p.r(U)p.r(C)p.r(U)p.r(T)p.r(T)}|RNA2{r(A)p.r(G)p.r(A)p.r(A)p.r(G)p.[fl2r](U)p.r(A)p.r(U)p.r(C)p.r(G)p.r(G)p.r(U)p.r(U)p.r(G)p.r(G)p.r(C)p.r(C)p.r(U)p.r(U)p.r(T)p.r(T)}$$$RNA1{StrandType:ss}|RNA2{StrandType:as}$	69%
RNA1{r(A)p.r(A)p.r(G)p.r(U)p.[fl2r](A)p.r(G)p.r(U)p.r(C)p.r(C)p.r(C)p.r(C)p.r(C)p.r(U)p.r(U)p.r(G)p.r(A)p.r(A)p.r(G)p.r(A)p.r(T)p.r(T)}|RNA2{r(U)p.r(C)p.r(U)p.r(U)p.r(C)p.r(A)p.r(A)p.r(G)p.r(G)p.r(G)p.r(G)p.r(G)p.r(A)p.r(C)p.[fl2r](U)p.r(A)p.r(C)p.r(U)p.r(U)p.r(T)p.r(T)}$$$RNA1{StrandType:ss}|RNA2{StrandType:as}$	69%
RNA1{r(A)p.r(C)p.r(A)p.r(U)p.r(A)p.r(G)p.r(A)p.r(G)p.r(G)p.r(A)p.r(A)p.r(G)p.r(A)p.r(C)p.r(G)p.r(C)p.r(G)p.r(G)p.r(A)p.r(T)p.r(T)}|RNA2{r(U)p.r(C)p.r(C)p.r(G)p.r(C)p.r(G)p.r(U)p.r(C)p.r(U)p.r(U)p.r(C)p.r(C)p.r(U)p.r(C)p.[fl2r](U)p.r(A)p.r(U)p.r(G)p.r(U)p.r(T)p.r(T)}$$$RNA1{StrandType:ss}|RNA2{StrandType:as}$	89%
RNA1{r(A)p.r(C)p.r(C)p.r(G)p.r(A)p.r(C)p.r(G)p.r(A)p.r(U)p.r(U)p.r(C)p.r(U)p.r(U)p.r(C)p.m(U)p.r(A)p.r(C)p.r(U)p.r(C)p.r(T)p.r(T)}|RNA2{r(G)p.r(A)p.r(G)p.m(U)p.r(A)p.r(G)p.r(A)p.r(A)p.r(G)p.m(A)p.m(A)p.r(U)p.r(C)p.r(G)p.r(U)p.r(C)p.r(G)p.r(G)p.r(U)p.r(T)p.r(T)}$$$RNA1{StrandType:ss}|RNA2{StrandType:as}$	67%
RNA1{r(A)p.r(C)p.r(C)p.r(G)p.r(A)p.r(C)p.r(G)p.r(A)p.r(U)p.r(U)p.r(C)p.r(U)p.r(U)p.r(C)p.r(U)p.r(A)p.r(C)p.r(U)p.r(C)p.r(T)p.r(T)}|RNA2{r(G)p.r(A)p.r(G)p.m(U)p.r(A)p.r(G)p.r(A)p.r(A)p.r(G)p.r(A)p.r(A)p.r(U)p.r(C)p.r(G)p.r(U)p.r(C)p.r(G)p.r(G)p.r(U)p.r(T)p.r(T)}$$$RNA1{StrandType:ss}|RNA2{StrandType:as}$	68%
RNA1{r(A)p.r(C)p.r(C)p.r(U)p.[fl2r](U)p.r(A)p.r(A)p.r(G)p.r(G)p.r(A)p.r(C)p.[fl2r](C)p.[fl2r](A)p.r(C)p.r(C)p.r(G)p.r(G)p.r(A)p.r(U)p.r(T)p.r(T)}|RNA2{r(A)p.r(U)p.r(C)p.r(C)p.r(G)p.r(G)p.[fl2r](U)p.[fl2r](G)p.r(G)p.r(U)p.r(C)p.r(C)p.r(U)p.[fl2r](U)p.[fl2r](A)p.r(A)p.r(G)p.r(G)p.r(U)p.r(T)p.r(T)}$$$RNA1{StrandType:ss}|RNA2{StrandType:as}$	70%
RNA1{r(A)p.r(C)p.r(C)p.r(U)p.[fl2r](U)p.r(A)p.r(A)p.r(G)p.r(G)p.r(A)p.r(C)p.r(C)p.r(A)p.r(C)p.r(C)p.r(G)p.r(G)p.r(A)p.r(U)p.r(T)p.r(T)}|RNA2{r(A)p.r(U)p.r(C)p.r(C)p.r(G)p.r(G)p.[fl2r](U)p.r(G)p.r(G)p.r(U)p.r(C)p.r(C)p.r(U)p.r(U)p.r(A)p.r(A)p.r(G)p.r(G)p.r(U)p.r(T)p.r(T)}$$$RNA1{StrandType:ss}|RNA2{StrandType:as}$	71%
RNA1{r(A)p.r(C)p.r(C)p.r(U)p.m(U)p.r(A)p.r(A)p.r(G)p.r(G)p.r(A)p.r(C)p.m(C)p.r(A)p.r(C)p.r(C)p.r(G)p.r(G)p.r(A)p.r(U)p.r(T)p.r(T)}|RNA2{r(A)p.r(U)p.r(C)p.r(C)p.r(G)p.r(G)p.m(U)p.r(G)p.r(G)p.r(U)p.r(C)p.r(C)p.r(U)p.m(U)p.r(A)p.r(A)p.r(G)p.r(G)p.r(U)p.r(T)p.r(T)}$$$RNA1{StrandType:ss}|RNA2{StrandType:as}$	72%
